In the NIST ThermoML archive (doi:10.1021/je100315g):

What was measured:
[1] = 101 kPa, Liquid
[2] = xn = mol fraction of the nth substance listed; conditions: 101 kPa, Liquid

CCCC[n+]1ccn(C)c1.O=S(=O)([N-]S(=O)(=O)C(F)(F)F)C(F)(F)F
[1]
Conditions	mass density [kg/m3]
293.15 K	1441.63
298.15 K	1436.83
303.13 K	1431.98
308.15 K	1427.16
313.15 K	1422.36

CCn1cc[n+](C)c1.O=S(=O)([N-]S(=O)(=O)C(F)(F)F)C(F)(F)F
[1]
Conditions	mass density [kg/m3]
293.15 K	1522.08
298.15 K	1516.96
303.13 K	1511.85
308.15 K	1506.8
313.15 K	1501.74

CCCC[n+]1ccn(C)c1.O=S(=O)([N-]S(=O)(=O)C(F)(F)F)C(F)(F)F + C1CCOC1
mass density [kg/m3], [2]
Conditions	x1 = 0.0488	x1 = 0.1139	x1 = 0.1771	x1 = 0.2815	x1 = 0.4048	x1 = 0.4897	x1 = 0.6329	x1 = 0.7468	x1 = 0.9071	x1 = 1
293.15 K	978.17	1069.71	1136.61	1218.29	1286.31	1321.41	1367.37	1395.56	1426.74	1441.63
298.15 K	973.69	1065.22	1132.17	1213.74	1281.83	1317.1	1362.88	1391.06	1421.92	1436.83
303.13 K	970.01	1060.65	1128.01	1209.23	1277.24	1312.14	1358.73	1386.29	1417.19	1431.98
308.15 K	964.12	1055.92	1122.34	1204.63	1272.69	1307.42	1353.21	1381.45	1412.45	1427.16

CCn1cc[n+](C)c1.O=S(=O)([N-]S(=O)(=O)C(F)(F)F)C(F)(F)F + C1CCOC1
mass density [kg/m3], [2]
Conditions	x1 = 0.1037	x1 = 0.2024	x1 = 0.3255	x1 = 0.3841	x1 = 0.4425	x1 = 0.5469	x1 = 0.6863	x1 = 0.7697	x1 = 0.9177	x1 = 1
293.15 K	1065.02	1178.77	1278.55	1315.59	1347.51	1395.4	1444.8	1469.16	1505.22	1522.08
298.15 K	1061.32	1173.6	1274.14	1310.96	1342.57	1390.69	1440.1	1464.51	1500.21	1516.96
303.13 K	1056.14	1168.46	1269.66	1306.48	1337.7	1385.78	1435.45	1459.45	1495.17	1511.85
308.15 K	1051.2	1163.55	1264.42	1301.8	1332.56	1381.31	1430.62	1454.67	1490.13	1506.8
